In ChEMBL document CHEMBL1133637, “Identification of MK-944a: a second clinical candidate from the hydroxylaminepentanamide isostere series of HIV protease inhibitors” (J Med Chem, 2000):

Key:
[1] = target: Human immunodeficiency virus type 1 protease (Human immunodeficiency virus 1) (UniProt Q72874); experiment: Concentration required for 95% inhibition of Protease
[2] = target: T1, Human immunodeficiency virus type 1 protease (Human immunodeficiency virus 1, UniProt Q72874); experiment: Concentration required for 50% inhibition of Protease
[3] = target: Human immunodeficiency virus type 1 protease (Human immunodeficiency virus 1) (UniProt Q72874); experiment: Inhibition of HIV-1 protease in vitro.
[4] = target: T1, Human immunodeficiency virus type 1 protease
[5] = Maximal plasma concentration in dogs at 10mg/kg oral dose 0.05M citric acid; settings: dog
[6] = Partition coefficient (logP); settings: octanol/water
[7] = in vivo; settings: dog, po, 10 mg/kg
[8] = target: Human immunodeficiency virus type 1 protease (Human immunodeficiency virus 1) (UniProt Q72874); experiment: Concentration required for 95%Inhibition of Protease

SMILES | IC95 [3] [nM] | IC50 [4] [nM] | Cmax [5] [nM] | also measured
Cc1nn(C)c2ncc(CN3CCN(C[C@@H](O)C[C@@H](Cc4ccccc4)C(=O)NC4c5ccccc5C[C@H]4O)[C@H](C(=O)NC(C)(C)C)C3)c(Cl)c12 (stereo not given in full) |  |  |  | IC95 [1]: 12.5 nM; IC50 [2]: 0.14 nM
CSc1ncccc1CN1CCN(C[C@@H](O)C[C@@H](Cc2ccccc2)C(=O)NC2c3ccccc3C[C@H]2O)[C@H](C(=O)NC(C)(C)C)C1 (stereo not given in full) | 15.6 | 0.26 |  | 
CC(C)(C)NC(=O)C1CN(Cc2c[nH]c3ccccc23)CCN1CC(O)CC(Cc1ccccc1)C(=O)NC1c2ccccc2CC1O (stereo not given) | 50 | 1.7 |  | 
CC(C)(C)NC(=O)C1CN(Cc2cc3cc(CO)cnc3o2)CCN1CC(O)CC(Cc1ccccc1)C(=O)NC1c2ccccc2CC1O (stereo not given) |  |  |  | IC95 [1]: 62.5 nM; IC50 [2]: 0.18 nM
Cc1cc2oc(CN3CCN(C[C@@H](O)C[C@@H](Cc4ccccc4)C(=O)NC4c5ccccc5C[C@H]4O)[C@H](C(=O)NC(C)(C)C)C3)cc2cn1 (stereo not given in full) | 12 | 0.19 |  | 
CCOC(=O)c1cnc2oc(CN3CCN(CC(O)CC(Cc4ccccc4)C(=O)NC4c5ccccc5CC4O)C(C(=O)NC(C)(C)C)C3)cc2c1 (stereo not given) |  |  |  | IC95 [1]: 25 nM; IC50 [2]: 0.27 nM
CC(C)(C)NC(=O)[C@@H]1CN(Cc2nc3ccccc3[nH]2)CCN1C[C@@H](O)C[C@@H](Cc1ccccc1)C(=O)NC1c2ccccc2C[C@H]1O (stereo not given in full) | 200 | 0.47 |  | 
Cc1c(CN2CCN(CC(O)CC(Cc3ccccc3)C(=O)NC3c4ccccc4CC3O)C(C(=O)NC(C)(C)C)C2)oc2ccccc12 (stereo not given) |  |  | 408 | IC95 [1]: 25 nM; IC50 [2]: 0.11 nM
CC(C)(C)NC(=O)[C@@H]1CN(Cc2cc3ccsc3s2)CCN1C[C@@H](O)C[C@@H](Cc1cccnc1)C(=O)N[C@H]1c2ccccc2C[C@H]1O | 6 |  |  | 
CC(C)(C)NC(=O)[C@@H]1CN(Cc2cnc3ccccc3c2)CCN1C[C@@H](O)C[C@@H](Cc1ccccc1)C(=O)NC1c2ccccc2C[C@H]1O (stereo not given in full) | 25 | 0.14 |  | 
Cc1ccc(CN2CCN(C[C@@H](O)C[C@@H](Cc3ccccc3)C(=O)NC3c4ccccc4C[C@H]3O)[C@H](C(=O)NC(C)(C)C)C2)cn1 (stereo not given in full) | 100 | 0.62 |  | logP [6]: 2.14
CC(C)(C)NC(=O)[C@@H]1CN(Cc2cnc3ccoc3c2)CCN1C[C@@H](O)C[C@@H](Cc1ccccc1)C(=O)NC1c2ccccc2C[C@H]1O (stereo not given in full) | 3 | 0.17 | 9720 | concentration at 8 h [7]: 1550 nM
COc1ncccc1CN1CCN(C[C@@H](O)C[C@@H](Cc2ccccc2)C(=O)NC2c3ccccc3C[C@H]2O)[C@H](C(=O)NC(C)(C)C)C1 (stereo not given in full) | 12 | 1.1 | 515 | logP [6]: > 3.84
CC(C)(C)NC(=O)C1CN(Cc2cc3cccnc3o2)CCN1CC(O)CC(Cc1ccccc1)C(=O)NC1c2ccccc2CC1O (stereo not given) | 50 | 0.32 | 1170 | 
CCOc1ccc(CN2CCN(C[C@@H](O)C[C@@H](Cc3ccccc3)C(=O)NC3c4ccccc4C[C@H]3O)[C@H](C(=O)NC(C)(C)C)C2)cn1 (stereo not given in full) | 100 | 3.4 | 300 | logP [6]: 3.62
CC(C)(C)NC(=O)C1CN(Cc2cc3cccnc3s2)CCN1CC(O)CC(Cc1ccccc1)C(=O)NC1c2ccccc2CC1O (stereo not given) | 12.5 | 0.11 |  | 
CC(C)(C)NC(=O)[C@@H]1CN(Cc2cc3ccccc3o2)CCN1C[C@@H](O)C[C@@H](Cc1ccccc1)C(=O)N[C@H]1c2ccccc2C[C@H]1O [L 756423] | 25 | 0.18 | 28300 | concentration at 8 h [7]: 800 nM
CC(C)(C)NC(=O)[C@@H]1CN(Cc2cc3ccncc3o2)CCN1C[C@@H](O)C[C@@H](Cc1ccccc1)C(=O)NC1c2ccccc2C[C@H]1O (stereo not given in full) | 12.5 | 0.39 | 36500 | 
Cc1nn(C)c2ncc(CN3CCN(C[C@@H](O)C[C@@H](Cc4ccccc4)C(=O)NC4c5ccccc5C[C@H]4O)[C@H](C(=O)NC(C)(C)C)C3)cc12 (stereo not given in full) |  |  | 190 | IC95 [1]: 6 nM; IC50 [2]: 0.35 nM
CC(C)(C)NC(=O)[C@@H]1CN(Cc2cnc3occc3c2)CCN1C[C@@H](O)C[C@@H](Cc1ccccc1)C(=O)N[C@H]1c2ccccc2C[C@H]1O | 6 | 0.35 | 15000 | concentration at 8 h [7]: 9430 nM
CC(C)(C)NC(=O)[C@@H]1CN(C(=O)c2cnc3occc3c2)CCN1C[C@@H](O)C[C@@H](Cc1ccccc1)C(=O)NC1c2ccccc2C[C@H]1O (stereo not given in full) |  |  | 130 | IC95 [1]: 100 nM; IC50 [2]: 1.7 nM
CC(C)(C)NC(=O)[C@@H]1CN(Cc2cccnc2)CCN1C[C@@H](O)C[C@@H](Cc1ccccc1)C(=O)N[C@H]1c2ccccc2C[C@H]1O | 50 |  |  | 
CC(C)(C)NC(=O)[C@@H]1CN(Cc2ccc(Cl)nc2)CCN1C[C@@H](O)C[C@@H](Cc1ccccc1)C(=O)NC1c2ccccc2C[C@H]1O (stereo not given in full) | 12 | 0.49 |  | logP [6]: > 3.84
CC(C)(C)NC(=O)[C@@H]1CN(Cc2cc3cnccc3o2)CCN1C[C@@H](O)C[C@@H](Cc1ccccc1)C(=O)NC1c2ccccc2C[C@H]1O (stereo not given in full) | 6 | 0.22 |  | 
CC(C)(C)NC(=O)[C@@H]1CN(Cc2cnc3c(c2)CCO3)CCN1C[C@@H](O)C[C@@H](Cc1ccccc1)C(=O)NC1c2ccccc2C[C@H]1O (stereo not given in full) | 25 | 0.68 | 160 | 
CC(C)(C)NC(=O)C1CN(Cc2ccc3occc3c2)CCN1CC(O)CC(Cc1ccccc1)C(=O)NC1c2ccccc2CC1O (stereo not given) | 100 | 1.7 |  | 
CC(C)(C)NC(=O)C1CN(Cc2csc3ncccc23)CCN1CC(O)CC(Cc1ccccc1)C(=O)NC1c2ccccc2CC1O (stereo not given) |  |  | 230 | IC95 [8]: 6 nM; IC50 [2]: 0.2 nM
CC(C)(C)NC(=O)[C@@H]1CN(Cc2cnc3occc3c2Cl)CCN1C[C@@H](O)C[C@@H](Cc1ccccc1)C(=O)NC1c2ccccc2C[C@H]1O (stereo not given in full) | 15.6 | 0.25 | 3940 | concentration at 8 h [7]: 2060 nM
